# Data from patent US8715714B2, “Uses of rare earth elements for hair improvement” (Micellbio Co., Ltd., priority 2006, dated 2014).
# “Also recorded” adds a separate entry of the source.
# What was measured:
# Type in all cases: cell-based
# tyrosinase [1] = biological target: T1, tyrosinase (Mus musculus, UniProt P11344); assay: Activity of tyrosinase in B16F10 cells; conditions: 10 μg to 1 pg, versus control group, FIG. 8
# T1 sequence (P11344 19-533): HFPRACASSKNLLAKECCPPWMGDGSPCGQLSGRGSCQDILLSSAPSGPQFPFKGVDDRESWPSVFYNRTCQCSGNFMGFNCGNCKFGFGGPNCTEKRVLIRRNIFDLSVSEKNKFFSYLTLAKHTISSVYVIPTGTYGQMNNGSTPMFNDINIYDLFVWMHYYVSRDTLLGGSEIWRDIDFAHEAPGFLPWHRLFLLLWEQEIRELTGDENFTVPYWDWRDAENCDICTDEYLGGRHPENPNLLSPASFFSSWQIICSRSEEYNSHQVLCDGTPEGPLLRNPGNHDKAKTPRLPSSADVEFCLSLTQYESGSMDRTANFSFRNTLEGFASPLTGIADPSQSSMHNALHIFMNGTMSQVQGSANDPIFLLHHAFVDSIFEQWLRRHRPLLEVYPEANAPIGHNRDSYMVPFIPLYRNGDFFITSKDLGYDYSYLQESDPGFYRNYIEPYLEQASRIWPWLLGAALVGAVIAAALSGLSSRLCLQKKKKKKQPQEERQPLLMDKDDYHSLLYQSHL
# Protocol: (§1) In order to evaluate the effect of promoting black hair formation, the activity of tyrosinase was measured in Sk-mel-31, a human melanoma cell, and B16F10, a mouse melanoma cell. The cells were cultivated in an incubator at 37° C. (5% CO2 and 60% relative humidity) while maintaining a density of 1×10^6 cells/ml for Sk-mel-31 and 2×10^5 cells/ml for B16F10 in RPMI-1640 medium (containing 1% penicillin-streptomycin and 10% fetal bovine serum). The cells were stabilized in the incubator for 24 hours, and the culture medium containing FBS was replaced by FBS-free RPMI-1640. The cells were treated with mixed rare earth elements of 10 μg, 1 μg, 100 ng, 10 ng, 1 ng, 100 pg, […] and 1 pg, respectively, and individual rare earth elements of 10 ng. In order to measure the activity of tyrosinase, the cells were cultivated for a given time, centrifuged (100×g) for 10 minutes, and harvested. […] The cells were placed in an ice bath for one hour, and centrifuged with 40,000×g at 4° C. for 20 minutes to obtain a cell extract. 130 μl of 5 mM L-DOPA (L-3,4-dihydroxyphenylalanine) and 120 μl of 25 mM MBTH (3-methyl-2-benzothiazolinone hydrazone) were added to 250 μl of an analysis buffer containing 100 mM potassium phosphate (pH 7.1), 4% N,N-dimethylformamide and 0.1% (v/v) Triton X-100, and reacted in a thermostat at 37° C. for 5 minutes, and then, 100 μg of the cell extract was added thereto, and further reacted for 2 hours. Then, 500 μl of 1 M perchloric acid was added thereto and the mixture was centrifuged with 9,000×g at room temperature for 20 minutes. Then, the supernatant was taken and absorbance was measured at 505 nm.
# [2] = system: Mouse embryo fibroblasts NIH 3T3; assay: MTT cell proliferation assay in NIH 3T3 fibroblasts
# Protocol: Mouse embryo fibroblasts NIH 3T3 were cultivated in an incubator at 37° C. ([…], 5% CO2 and 60% humidity) while maintaining a density of 2×10^6 or 4×10^6 cells/ml in Dulbecco's modified Eagle's media (DMEM) supplemented with 10% fetal bovine serum (FBS) and 1% penicillin-streptomycin. Cell proliferation was measured by using MTT [3-(3,5-dimethyl-thiazol-2-yl)-2,5-diphenyltetrazolium bromide] assay. For MTT assay, the cells were plated in a 96-well plate at 2×10^3 cells/ml per well, and treated with a culture medium supplemented with 10% FBS. The cells were stabilized in the incubator for 24 hours, the culture medium supplemented with FBS was replaced by FBS-free DMEM, and the cells were treated with mixed rare earth elements of 10 μg, 1 μg, 100 ng, 10 ng, 1 ng, 100 pg, 10 pg and 1 pg, respectively, and individual rare earth elements of 10 ng. Then, the cells were cultivated for a given time, 50 μl per well of MTT (2 mg/l ml sterilized distilled water) was added thereto, and the mixture was reacted for 4 hours. The reaction mixture was treated with DMSO (dimethyl sulfoxide) and shaken for 30 minutes. Absorbance was measured at 540 nm using an ELISA reader (550, Bio-rad).
# [3] = system: B16F10, a mouse melanoma cell; assay: Melanin production in B16F10 cells; conditions: mouse melanoma cell line; versus control group; FIG. 10
# Protocol: (§2) Cells were cultivated according to the same process as in Experimental Example 6, and centrifuged (100×g) for 10 minutes to harvest the cells. In order to measure the production of melanin, 200 μg of the cell extract was added to 1 N NaOH (total 1 ml), allowed to stand at room temperature for 30 minutes, and then, absorbance was measured at 400 nm.
# (§3) In order to measure the production of melanin, the cells were cultivated and harvested according to the same process as that of Experimental Example 6, and the production of melanin was measured according to the same process as that of Experimental Example 8.
# tyrosinase [4] = assay: Expression of tyrosinase in Sk-mel-31 cells by Western blotting; conditions: human melanoma cell line; versus control group; FIG. 9
# Protocol: (§4) Cells were cultivated according to the same process as in Experimental Example 6, and centrifuged (100×g) for 10 minutes to harvest the cells. In order to measure the expression of tyrosinase by Western blotting, 100 μg of the cell extract was resolved on 10% SDS-PAGE, transferred to NC, and then, blocked with TBS containing 5% skim milk. Then, it was reacted with a primary antibody diluted to 1:2,500 (monoclonal anti-tyrosine hydroxylase clone Th-2) and a secondary antibody diluted to 1:5,000 (anti-mouse IgG), respectively, and washed with TBS containing 0.2% Tween-20, and then, photosensitized on an X-ray film using an ECL detection kit. Then, OD values were graphed using an image analysis program of LabWork™ (version 4.4.00.0).
# tyrosinase [5] = biological target: T2, tyrosinase (Homo sapiens, UniProt P14679); assay: Activity of tyrosinase in Sk-mel-31 cells; conditions: 10 μg to 1 pg, versus control group, FIG. 7
# T2 sequence (P14679 19-529): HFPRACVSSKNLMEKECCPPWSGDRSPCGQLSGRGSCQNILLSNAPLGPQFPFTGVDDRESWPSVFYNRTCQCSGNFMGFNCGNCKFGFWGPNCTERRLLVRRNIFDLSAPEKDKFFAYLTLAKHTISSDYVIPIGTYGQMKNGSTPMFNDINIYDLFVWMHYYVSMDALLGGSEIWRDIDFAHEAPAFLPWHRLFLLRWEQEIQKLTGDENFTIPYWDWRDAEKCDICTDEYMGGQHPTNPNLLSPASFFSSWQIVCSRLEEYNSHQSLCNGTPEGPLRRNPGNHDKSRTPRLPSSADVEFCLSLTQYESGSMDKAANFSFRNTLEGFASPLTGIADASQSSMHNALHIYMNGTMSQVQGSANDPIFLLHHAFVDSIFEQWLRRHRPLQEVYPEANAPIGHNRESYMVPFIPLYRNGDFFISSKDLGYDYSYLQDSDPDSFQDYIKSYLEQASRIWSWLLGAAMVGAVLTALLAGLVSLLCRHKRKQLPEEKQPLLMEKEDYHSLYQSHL
# Protocol: as §1
# [6] = system: Sk-mel-31, a human melanoma cell; assay: Melanin production in Sk-mel-31 cells; conditions: human melanoma cell line; versus control group; FIG. 10
# Protocol: as §2, §3
# tyrosinase [7] = assay: Expression of tyrosinase in B16F10 cells by Western blotting; conditions: mouse melanoma cell line; versus control group; FIG. 9
# Protocol: as §4
compound,measurement,setting,value
"[Ce] [Ce, cerium]",tyrosinase activity,tyrosinase [1],increased; also recorded: substantially the same effect as mixed rare earth elements; also recorded: most greatly increased
same,cell proliferation compared with the non-treated group,"[2]; 10 μg to 1 pg, FIG. 1",increased
same,cell proliferation compared with the non-treated group,"[2]; 10 μg to 1 pg, FIG. 1, maximum",up to 1.69 times
same,cell proliferation compared with the non-treated group,"[2]; each element of 10 ng, FIG. 2",most greatly increased
same,melanin production,[3],substantially the same effect; also recorded: most greatly increased
same,expression of tyrosinase,tyrosinase [4],substantially the same effect; also recorded: most greatly increased
same,tyrosinase activity,tyrosinase [5],increased; also recorded: substantially the same effect as mixed rare earth elements; also recorded: most greatly increased
"[Sc] [Sc, scandium]",melanin production,[6],substantially the same effect
same,tyrosinase activity,tyrosinase [1],substantially the same effect as mixed rare earth elements
same,melanin production,[3],substantially the same effect
same,expression of tyrosinase,tyrosinase [4],substantially the same effect
same,expression of tyrosinase,tyrosinase [7],substantially the same effect
same,tyrosinase activity,tyrosinase [5],substantially the same effect as mixed rare earth elements
"[Yb] [Yb, ytterbium]",melanin production,[6],substantially the same effect
same,tyrosinase activity,tyrosinase [1],substantially the same effect as mixed rare earth elements
same,melanin production,[3],substantially the same effect
same,expression of tyrosinase,tyrosinase [4],substantially the same effect
same,expression of tyrosinase,tyrosinase [7],substantially the same effect
same,tyrosinase activity,tyrosinase [5],substantially the same effect as mixed rare earth elements
"[Tb] [Tb, terbium]",melanin production,[6],substantially the same effect
same,tyrosinase activity,tyrosinase [1],substantially the same effect as mixed rare earth elements
same,melanin production,[3],substantially the same effect
same,expression of tyrosinase,tyrosinase [4],substantially the same effect
same,expression of tyrosinase,tyrosinase [7],substantially the same effect
same,tyrosinase activity,tyrosinase [5],substantially the same effect as mixed rare earth elements
"[Y] [Y, yttrium]",melanin production,[6],substantially the same effect
same,tyrosinase activity,tyrosinase [1],substantially the same effect as mixed rare earth elements
same,melanin production,[3],substantially the same effect
same,expression of tyrosinase,tyrosinase [4],substantially the same effect
same,expression of tyrosinase,tyrosinase [7],substantially the same effect
same,tyrosinase activity,tyrosinase [5],substantially the same effect as mixed rare earth elements
"[Dy] [Dy, dysprosium]",melanin production,[6],substantially the same effect
same,tyrosinase activity,tyrosinase [1],substantially the same effect as mixed rare earth elements
same,melanin production,[3],substantially the same effect
same,expression of tyrosinase,tyrosinase [4],substantially the same effect
same,expression of tyrosinase,tyrosinase [7],substantially the same effect
same,tyrosinase activity,tyrosinase [5],substantially the same effect as mixed rare earth elements
"[Pr] [Pr, praseodymium]",melanin production,[6],substantially the same effect
same,tyrosinase activity,tyrosinase [1],substantially the same effect as mixed rare earth elements
same,melanin production,[3],substantially the same effect
same,expression of tyrosinase,tyrosinase [4],substantially the same effect
same,expression of tyrosinase,tyrosinase [7],substantially the same effect
same,tyrosinase activity,tyrosinase [5],substantially the same effect as mixed rare earth elements
"[Ho] [Ho, holmium]",melanin production,[6],substantially the same effect
same,tyrosinase activity,tyrosinase [1],substantially the same effect as mixed rare earth elements
same,melanin production,[3],substantially the same effect
same,expression of tyrosinase,tyrosinase [4],substantially the same effect
same,expression of tyrosinase,tyrosinase [7],substantially the same effect
same,tyrosinase activity,tyrosinase [5],substantially the same effect as mixed rare earth elements
"[Tm] [Tm, thulium]",melanin production,[6],substantially the same effect
same,tyrosinase activity,tyrosinase [1],substantially the same effect as mixed rare earth elements
same,melanin production,[3],substantially the same effect
same,expression of tyrosinase,tyrosinase [4],substantially the same effect
same,expression of tyrosinase,tyrosinase [7],substantially the same effect
same,tyrosinase activity,tyrosinase [5],substantially the same effect as mixed rare earth elements
"[Pm] [Pm, promethium]",melanin production,[6],substantially the same effect
same,tyrosinase activity,tyrosinase [1],substantially the same effect as mixed rare earth elements
same,melanin production,[3],substantially the same effect
same,expression of tyrosinase,tyrosinase [4],substantially the same effect
same,expression of tyrosinase,tyrosinase [7],substantially the same effect
same,tyrosinase activity,tyrosinase [5],substantially the same effect as mixed rare earth elements
"[Er] [Er, erbium]",melanin production,[6],substantially the same effect
same,tyrosinase activity,tyrosinase [1],substantially the same effect as mixed rare earth elements
same,melanin production,[3],substantially the same effect
same,expression of tyrosinase,tyrosinase [4],substantially the same effect
same,expression of tyrosinase,tyrosinase [7],substantially the same effect
same,tyrosinase activity,tyrosinase [5],substantially the same effect as mixed rare earth elements
